This note sets out measurements from PubChem BioAssay AID256 (DTP/NCI, 2004).

The subject of this test is CD2F1 mice, L1210 leukemia ip, survival T/C. As to the kind of experiment: NCI In Vivo Anticancer Drug Screen. Data for tumor model L1210 Leukemia (intraperitoneal) in CD2F1 (CDF1) mice. Conditions: higher = longer survival. The method in brief: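 Ratio T/C, where T is the treated-group value and C the vehicle-dosed control value, from mice implanted with a transplantable tumor.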

Where [1] appears, read: endpoint: mean survival time, dose: 100.0 mg/kg/injection, schedule: Q04DX003 (ip), vehicle: saline.
Setting [2] is: endpoint: mean survival time, dose: 200.0 mg/kg/injection, schedule: Q04DX003 (ip), vehicle: saline.
Setting [3] is: endpoint: mean survival time, dose: 400.0 mg/kg/injection, schedule: Q04DX003 (ip), vehicle: saline.
[4] abbreviates: endpoint: mean survival time, dose: 100.0 mg/kg/injection, schedule: Q01DX009 (ip), vehicle: saline with Tween-80.
[5] abbreviates: endpoint: mean survival time, dose: 200.0 mg/kg/injection, schedule: Q01DX009 (ip), vehicle: saline with Tween-80.
The mark [6] stands for this setting: endpoint: mean survival time, dose: 100.0 mg/kg/injection, schedule: Q04DX002 (ip), vehicle: saline with Tween-80.
Setting [7] is: endpoint: mean survival time, dose: 200.0 mg/kg/injection, schedule: Q04DX002 (ip), vehicle: saline with Tween-80.
Setting [8] is: endpoint: mean survival time, dose: 400.0 mg/kg/injection, schedule: Q04DX002 (ip), vehicle: saline with Tween-80.

Several values for one entry are separate records, joined by “and”; a condition that tells them apart may be missing. Equal entries are not always repeated. Inconclusive results and toxic doses are left out.

`CN[C@H]1CCc2cc(OC)c(OC)c(OC)c2-c2ccc(OC)c(=O)cc21`: the T/C is 113 % of control and 105 % of control (endpoint: mean survival time, dose: 0.63 mg/kg/injection, schedule: Q01DX009 (ip), vehicle: saline); 97 % of control and 101 % of control (endpoint: mean survival time, dose: 0.63 mg/kg/injection, schedule: Q01DX009 (ip), vehicle: water); 113 % of control and 116 % of control (endpoint: mean survival time, dose: 1.25 mg/kg/injection, schedule: Q01DX009 (ip), vehicle: saline); 118 % of control and 108 % of control (endpoint: mean survival time, dose: 1.25 mg/kg/injection, schedule: Q01DX009 (ip), vehicle: water); 121 % of control (endpoint: mean survival time, dose: 2.5 mg/kg/injection, schedule: Q01DX007 (ip), vehicle: saline); 121 % of control and 123 % of control and 124 % of control (endpoint: mean survival time, dose: 2.5 mg/kg/injection, schedule: Q01DX009 (ip), vehicle: saline). Moreover, the T/C reads like this: (endpoint: mean survival time, dose: 2.5 mg/kg/injection, schedule: Q01DX009 (ip), vehicle: water) 116 % of control and 107 % of control; (endpoint: mean survival time, dose: 2.5 mg/kg/injection, schedule: Q03DX003 (ip), vehicle: saline) 102 % of control; (endpoint: mean survival time, dose: 2.5 mg/kg/injection, schedule: Q04DX003 (ip), vehicle: saline) 95 % of control; (endpoint: mean survival time, dose: 5.0 mg/kg/injection, schedule: Q01DX007 (ip), vehicle: saline) 122 % of control; (endpoint: mean survival time, dose: 5.0 mg/kg/injection, schedule: Q01DX009 (ip), vehicle: saline) 120 % of control; (endpoint: mean survival time, dose: 5.0 mg/kg/injection, schedule: Q01DX009 (ip), vehicle: water) 118 % of control. Besides, the T/C (endpoint: mean survival time, dose: 5.0 mg/kg/injection, schedule: Q03DX003 (ip), vehicle: saline) is 115 % of control; the T/C (endpoint: mean survival time, dose: 5.0 mg/kg/injection, schedule: Q04DX003 (ip), vehicle: saline) was 105 % of control; the T/C (endpoint: mean survival time, dose: 10.0 mg/kg/injection, schedule: Q01DX009 (ip), vehicle: water) was 124 % of control and 108 % of control; the T/C (endpoint: mean survival time, dose: 10.0 mg/kg/injection, schedule: Q04DX003 (ip), vehicle: saline) was 101 % of control; the T/C (endpoint: median survival time, dose: 0.63 mg/kg/injection, schedule: Q01DX009 (ip), vehicle: saline) is 114 % of control and 100 % of control; the T/C (endpoint: median survival time, dose: 1.25 mg/kg/injection, schedule: Q01DX009 (ip), vehicle: saline) was 114 % of control and 100 % of control. Besides, the T/C was 121 % of control and 111 % of control (endpoint: median survival time, dose: 2.5 mg/kg/injection, schedule: Q01DX009 (ip), vehicle: saline); 150 % of control (endpoint: median survival time, dose: 5.0 mg/kg/injection, schedule: Q01DX009 (ip), vehicle: saline).

As to `O=C(O)CC(C(=O)O)C(=O)O`, the T/C runs as follows: under setting [1], 100 % of control; under setting [2], 97 % of control; under setting [3], 94 % of control.

Consider `O=C(O)c1cc(C(=O)O)cc(S(=O)(=O)O)c1.[NH-]C1CCCCC1[NH-].[Pt+2]`, for which the T/C was 121 % of control and 103 % of control (endpoint: median survival time, dose: 3.12 mg/kg/injection, schedule: Q04DX003 (ip), vehicle: saline); 168 % of control (endpoint: median survival time, dose: 12.5 mg/kg/injection, schedule: Q04DX003 (ip), vehicle: saline); 176 % of control (endpoint: median survival time, dose: 25.0 mg/kg/injection, schedule: Q04DX003 (ip), vehicle: saline); 235 % of control and 350 % of control (endpoint: median survival time, dose: 50.0 mg/kg/injection, schedule: Q04DX003 (ip), vehicle: saline); 188 % of control (endpoint: median survival time, dose: 100.0 mg/kg/injection, schedule: Q04DX003 (ip), vehicle: saline).

Take `CCOC(=O)Nc1cc(C(F)(F)F)cc(C(F)(F)F)c1`: the T/C by setting is: under setting [4], 94 % of control; under setting [5], 94 % of control; (endpoint: mean survival time, dose: 400.0 mg/kg/injection, schedule: Q01DX009 (ip), vehicle: saline with Tween-80) 96 % of control.

In the case of `Nc1ccc(N=Nc2ccc3nccc(N)c3c2)c(N)n1`, the T/C is 119 % of control under setting [6], 119 % of control under setting [7] and 119 % of control under setting [8].

With `O=C(O)COc1ccc(Cl)cc1Cl` (tested in a mixture with another compound), the T/C by setting is: (endpoint: mean survival time, dose: 12.5 mg/kg/injection, schedule: Q01DX009 (ip), vehicle: saline with Tween-80) 89 % of control; (endpoint: mean survival time, dose: 25.0 mg/kg/injection, schedule: Q01DX009 (ip), vehicle: saline with Tween-80) 94 % of control; (endpoint: mean survival time, dose: 25.0 mg/kg/injection, schedule: Q04DX002 (ip), vehicle: saline with Tween-80) 111 % of control; (endpoint: mean survival time, dose: 50.0 mg/kg/injection, schedule: Q01DX009 (ip), vehicle: saline with Tween-80) 87 % of control and 104 % of control; (endpoint: mean survival time, dose: 50.0 mg/kg/injection, schedule: Q04DX002 (ip), vehicle: saline with Tween-80) 121 % of control; under setting [4], 101 % of control. The T/C is, setting by setting: under setting [6], 99 % of control; under setting [5], 93 % of control; under setting [7], 96 % of control.

For the compound `C1CCC2(CC1)OCCS2`, the T/C (endpoint: mean survival time, dose: 100.0 mg/kg/injection, schedule: Q01DX001 (ip), vehicle: saline) was 96 % of control and the T/C (endpoint: mean survival time, dose: 200.0 mg/kg/injection, schedule: Q01DX001 (ip), vehicle: saline) was 94 % of control.

With `COC12[C@@H](COC(N)=O)C3=C(C(=O)C(C)=C(NCCSSCCNC4=C(C)C(=O)C5=C(C4=O)C(COC(N)=O)[C@]4(OC)C6[C@@H](CN54)N6C)C3=O)N1C[C@@H]1[C@H]2N1C` (stereo not given in full), where the note is “endpoint: mean survival time, dose: 6.0 mg/kg/injection, schedule: Q01DX001 (ip), vehicle: distilled water + Tween-80”, the T/C was 114 % of control.

Take `O=P(OCc1ccccc1)(N(CCCl)CCCl)N1CCOCC1` (stereo not given): the T/C reads like this: (endpoint: mean survival time, dose: 62.5 mg/kg/injection, schedule: Q01DX010 (ip), vehicle: saline) 103 % of control; (endpoint: mean survival time, dose: 125.0 mg/kg/injection, schedule: Q01DX010 (ip), vehicle: saline) 101 % of control; (endpoint: mean survival time, dose: 250.0 mg/kg/injection, schedule: Q01DX010 (ip), vehicle: saline) 104 % of control.

Take `Cc1cn(C2CC3OP(=O)(OCc4ccccc4)OCC3O2)c(=O)[nH]c1=O` (stereo not given): the T/C reads like this: (endpoint: median survival time, dose: 12.5 mg/kg/injection, schedule: Q01DX005 (ip), vehicle: distilled water + Tween-80) 100 % of control; (endpoint: median survival time, dose: 25.0 mg/kg/injection, schedule: Q01DX005 (ip), vehicle: distilled water + Tween-80) 101 % of control; (endpoint: median survival time, dose: 50.0 mg/kg/injection, schedule: Q01DX005 (ip), vehicle: distilled water + Tween-80) 102 % of control; (endpoint: median survival time, dose: 100.0 mg/kg/injection, schedule: Q01DX005 (ip), vehicle: distilled water + Tween-80) 104 % of control; (endpoint: median survival time, dose: 200.0 mg/kg/injection, schedule: Q01DX005 (ip), vehicle: distilled water + Tween-80) 98 % of control.

As to `CCCSP(SCCC)SCCC`, the T/C was 107 % of control (endpoint: mean survival time, dose: 50.0 mg/kg/injection, schedule: Q01DX001 (ip), vehicle: Klucel (hydroxypropylcellulose) (HPC)); 96 % of control (endpoint: mean survival time, dose: 100.0 mg/kg/injection, schedule: Q01DX001 (ip), vehicle: Klucel (hydroxypropylcellulose) (HPC)); 101 % of control (endpoint: mean survival time, dose: 200.0 mg/kg/injection, schedule: Q01DX001 (ip), vehicle: Klucel (hydroxypropylcellulose) (HPC)).

For the compound `CNC(=O)NC1CCC(C)CC1` (stereo not given), the T/C reads like this: under setting [1], 98 % of control; under setting [2], 96 % of control; under setting [3], 96 % of control.

With `CCOC(=O)c1ncc(Cl)cc1N`, the T/C (endpoint: mean survival time, dose: 50.0 mg/kg/injection, schedule: Q01DX009 (ip), vehicle: Klucel (hydroxypropylcellulose) (HPC)) is 97 % of control.

For the compound `Nc1nc2c(ncn2-c2ccc3oc4ccccc4c3c2)c(=O)[nH]1`, the T/C was 93 % of control and 108 % of control (endpoint: mean survival time, dose: 100.0 mg/kg/injection, schedule: Q01DX001 (ip), vehicle: saline with Tween-80); 101 % of control under setting [6]; 89 % of control and 97 % of control (endpoint: mean survival time, dose: 200.0 mg/kg/injection, schedule: Q01DX001 (ip), vehicle: saline with Tween-80); 97 % of control under setting [7]; 89 % of control and 101 % of control (endpoint: mean survival time, dose: 400.0 mg/kg/injection, schedule: Q01DX001 (ip), vehicle: saline with Tween-80); 108 % of control under setting [8].

As to `O=C(O)CCCSc1nn(C2OC(CO)C(O)C2O)c(=O)[nH]c1=O` (stereo not given), the T/C runs as follows: (endpoint: mean survival time, dose: 12.5 mg/kg/injection, schedule: Q01DX005 (ip), vehicle: water) 104 % of control; (endpoint: mean survival time, dose: 25.0 mg/kg/injection, schedule: Q01DX005 (ip), vehicle: water) 104 % of control; (endpoint: mean survival time, dose: 50.0 mg/kg/injection, schedule: Q01DX005 (ip), vehicle: water) 104 % of control; (endpoint: mean survival time, dose: 100.0 mg/kg/injection, schedule: Q01DX005 (ip), vehicle: water) 101 % of control; (endpoint: mean survival time, dose: 200.0 mg/kg/injection, schedule: Q01DX005 (ip), vehicle: water) 101 % of control.

In the case of `Cc1ccc(S(=O)(=O)NN=C2CC3CCC(C2)S3)cc1`, the T/C was 101 % of control (endpoint: mean survival time, dose: 37.5 mg/kg/injection, schedule: Q01DX001 (ip), vehicle: saline with Tween-80); 104 % of control (endpoint: mean survival time, dose: 75.0 mg/kg/injection, schedule: Q01DX001 (ip), vehicle: saline with Tween-80); 106 % of control (endpoint: mean survival time, dose: 150.0 mg/kg/injection, schedule: Q01DX001 (ip), vehicle: saline with Tween-80).
